From paper PMC8877233, “The Hydrophobicity and Antifungal Potentiation of Burkholdine Analogues” (Molecules, 2022)
≈ marks a conversion by molar mass, not a printed value. Starred links: 1 amine or outer side, 2 acyl side, 3 side chain; linkers in the order of their positions; H or OH if unused. Positions of bridges follow the written chain, without caps; N, C: chain ends. Non-standard residues stand in square brackets, D forms with d. Residues, ends and D or L forms follow the SMILES beside them. *: point of attachment. X12 = CCCCCCCCCCC(=O)N[C@H](C(=O)NC[C@H](CC(=O)[*:1])N[*:2])[C@@H](C)O; X11 = CCCCCCCCNC(=O)[C@H](O)[C@@H](O)C(=O)NC[C@H](CC(=O)[*:1])N[*:2]; X10 = CCCCCCCCCCCC(=O)N[C@@H](CO)C(=O)NC[C@@H](CC(=O)[*:1])N[*:2]; X13 = CCCCCCCCCCC(=O)N[C@@H](CO)C(=O)NC[C@H](CC(=O)[*:1])N[*:2]; X5 = CCCCCCCCCCCC(=O)N[C@@H](CO)C(=O)NC[C@H](CC(=O)[*:1])N[*:2]; X6 = CCCCCCCCCCC(=O)N[C@@H](CO)C(=O)NC[C@@H](CC(=O)[*:1])N[*:2]; X7 = CCCCCCCCCCCC(=O)N[C@H](CO)C(=O)NC[C@@H](CC(=O)[*:1])N[*:2]; X1 = CCCCCCCCCCC(=O)N[C@H](CO)C(=O)NC[C@@H](CC(=O)[*:1])N[*:2]; X4 = CCCCCCCCCCCC(=O)N[C@H](CO)C(=O)NC[C@H](CC(=O)[*:1])N[*:2]; X8 = CCCCCCCCCCC(=O)N[C@H](CO)C(=O)NC[C@H](CC(=O)[*:1])N[*:2]; X9 = CCCCCCCCNC(=O)[C@H](O)[C@@H](O)C(=O)*; Undecanoyl = CCCCCCCCCCC(=O)*; Lauroyl = CCCCCCCCCCCC(=O)*; Orn = NCCC[C@H](N)C(=O)O

Legend:
[1] = RP-HPLC retention time as measure of hydrophilicity/hydrophobicity; assay type: physicochemical; details: chromatographic, Cosmosil 5C18-AR-II 4.6 x 150 mm, linear gradient 30–70% MeCN/H2O (0.1% TFA) for 30 min, 1 mL/min, UV 220 nm
Description: […] In all cases, the retention times of the (S)-Dab-containing peptides were shorter than those of the (R)-Dab-containing peptides, which were similar to those bearing L-Orn. The retention times of the cyclic peptides were shorter for Tat > D-Ser > L-Thr > L-Ser, while peptides bearing the undecanoic acid moiety eluted […] than those bearing the decanoic acid by about 2 min.

[2] = tested on: S. cerevisiae (ATCC204504); assay type: cell-based; details: ATCC204504, 24 h
Description: Bacto yeast extract (0.63 g, 70161, Fluka, Barcelona, Spain), peptone (1.00 g, 26421, Mikuni, Japan), and glucose (1.00 g, 16806-25, Nacalai tesque, Japan) were added to H2O (50 mL) at room temperature and the mixture was heated to 60 °C. After 30 min, the mixture was sterilized by heating in an autoclave at 121 °C for 20 min.
DMSO (8 µL, 13406-55, Nacalai tesque, Japan) was added to YPD medium (750 µL). The test fungus culture solution (3 µL) was added to this solution (1.5 mL).
The inhibitor (each 1.0 mg; 3a–h, 4a–b, 5a–b, 6a–b, 7, 8) was dissolved in DMSO (40 µL).
The prepared test bacteria (50 µL) were placed in A1–A12 of a 96-well plate. Bk analogue (50 µL) was added to A1, pipetting was performed, and then 50 µL was extracted from A1 and placed in A2. This operation was repeated until A11, and 50 µL extracted from A11 was discarded. The well plate was closed and incubated at 30 °C. After 24 h, the MIC values were evaluated.

Structure (SMILES)	tR [1]	MIC [2]
CCCCCCCCCCC(=O)N[C@@H](CO)C(=O)NC[C@@H]1CC(=O)N[C@H](CO)C(=O)N[C@H](Cc2ccc(O)cc2)C(=O)N[C@H](CC(N)=O)C(=O)NCC(=O)N[C@@H](CC(N)=O)C(=O)N[C@@H](CO)C(=O)N[C@@H](CC(N)=O)C(=O)N1 [Compound 3a, Cyclo-[Undecanoic Acid-Ser-(S)-7-D-Ser-D-Tyr-D-Asn-Gly-Asn-Ser-Asn]] ([dS][dY][dN]GNSN; linker N-C via X13)	9.3 min	>200 µg/mL
CCCCCCCCCCCC(=O)N[C@@H](CO)C(=O)NC[C@@H]1CC(=O)N[C@H](CO)C(=O)N[C@H](Cc2ccc(O)cc2)C(=O)N[C@H](CC(N)=O)C(=O)NCC(=O)N[C@@H](CC(N)=O)C(=O)N[C@@H](CO)C(=O)N[C@@H](CC(N)=O)C(=O)N1 [Compound 3b, Cyclo-[Dodecanoic Acid-Ser-(S)-7-D-Ser-D-Tyr-D-Asn-Gly-Asn-Ser-Asn]] ([dS][dY][dN]GNSN; linker N-C via X5)	11.7 min	100 µg/mL (≈ 90.4 µM)
CCCCCCCCCCC(=O)N[C@H](CO)C(=O)NC[C@@H]1CC(=O)N[C@H](CO)C(=O)N[C@H](Cc2ccc(O)cc2)C(=O)N[C@H](CC(N)=O)C(=O)NCC(=O)N[C@@H](CC(N)=O)C(=O)N[C@@H](CO)C(=O)N[C@@H](CC(N)=O)C(=O)N1 [Compound 3c, Cyclo-[Undecanoic Acid-D-Ser-(S)-7-D-Ser-D-Tyr-D-Asn-Gly-Asn-Ser-Asn]] ([dS][dY][dN]GNSN; linker N-C via X8)	9.4 min	>200 µg/mL
CCCCCCCCCCCC(=O)N[C@H](CO)C(=O)NC[C@@H]1CC(=O)N[C@H](CO)C(=O)N[C@H](Cc2ccc(O)cc2)C(=O)N[C@H](CC(N)=O)C(=O)NCC(=O)N[C@@H](CC(N)=O)C(=O)N[C@@H](CO)C(=O)N[C@@H](CC(N)=O)C(=O)N1 [Compound 3d, Cyclo-[Dodecanoic Acid-D-Ser-(S)-7-D-Ser-D-Tyr-D-Asn-Gly-Asn-Ser-Asn]] ([dS][dY][dN]GNSN; linker N-C via X4)	11.8 min	>200 µg/mL
CCCCCCCCCCC(=O)N[C@@H](CO)C(=O)NC[C@H]1CC(=O)N[C@H](CO)C(=O)N[C@H](Cc2ccc(O)cc2)C(=O)N[C@H](CC(N)=O)C(=O)NCC(=O)N[C@@H](CC(N)=O)C(=O)N[C@@H](CO)C(=O)N[C@@H](CC(N)=O)C(=O)N1 [Compound 3e, Cyclo-[Undecanoic Acid-Ser-(R)-7-D-Ser-D-Tyr-D-Asn-Gly-Asn-Ser-Asn]] ([dS][dY][dN]GNSN; linker N-C via X6)	9.4 min	>200 µg/mL
CCCCCCCCCCCC(=O)N[C@@H](CO)C(=O)NC[C@H]1CC(=O)N[C@H](CO)C(=O)N[C@H](Cc2ccc(O)cc2)C(=O)N[C@H](CC(N)=O)C(=O)NCC(=O)N[C@@H](CC(N)=O)C(=O)N[C@@H](CO)C(=O)N[C@@H](CC(N)=O)C(=O)N1 [Compound 3f, Cyclo-[Dodecanoic Acid-Ser-(R)-7-D-Ser-D-Tyr-D-Asn-Gly-Asn-Ser-Asn]] ([dS][dY][dN]GNSN; linker N-C via X10)	11.8 min	200 µg/mL (≈ 181 µM)
CCCCCCCCCCC(=O)N[C@H](CO)C(=O)NC[C@H]1CC(=O)N[C@H](CO)C(=O)N[C@H](Cc2ccc(O)cc2)C(=O)N[C@H](CC(N)=O)C(=O)NCC(=O)N[C@@H](CC(N)=O)C(=O)N[C@@H](CO)C(=O)N[C@@H](CC(N)=O)C(=O)N1 [Compound 3g, Cyclo-[Undecanoic Acid-D-Ser-(R)-7-D-Ser-D-Tyr-D-Asn-Gly-Asn-Ser-Asn]] ([dS][dY][dN]GNSN; linker N-C via X1)	9.6 min	>200 µg/mL
CCCCCCCCCCCC(=O)N[C@H](CO)C(=O)NC[C@H]1CC(=O)N[C@H](CO)C(=O)N[C@H](Cc2ccc(O)cc2)C(=O)N[C@H](CC(N)=O)C(=O)NCC(=O)N[C@@H](CC(N)=O)C(=O)N[C@@H](CO)C(=O)N[C@@H](CC(N)=O)C(=O)N1 [Compound 3h, Cyclo-[Dodecanoic Acid-D-Ser-(R)-7-D-Ser-D-Tyr-D-Asn-Gly-Asn-Ser-Asn]] ([dS][dY][dN]GNSN; linker N-C via X7)	11.8 min	>200 µg/mL
CCCCCCCCCCC(=O)N[C@H](C(=O)NC[C@@H]1CC(=O)N[C@H](CO)C(=O)N[C@H](Cc2ccc(O)cc2)C(=O)N[C@H](CC(N)=O)C(=O)NCC(=O)N[C@@H](CC(N)=O)C(=O)N[C@@H](CO)C(=O)N[C@@H](CC(N)=O)C(=O)N1)[C@@H](C)O [Compound 4a, Cyclo-[Undecanoic Acid-Thr-(S)-7-D-Ser-D-Tyr-D-Asn-Gly-Asn-Ser-Asn]] ([dS][dY][dN]GNSN; linker N-C via X12)	10.4 min	>200 µg/mL
CCCCCCCCNC(=O)[C@H](O)[C@@H](O)C(=O)NC[C@@H]1CC(=O)N[C@H](CO)C(=O)N[C@H](Cc2ccc(O)cc2)C(=O)N[C@H](CC(N)=O)C(=O)NCC(=O)N[C@@H](CC(N)=O)C(=O)N[C@@H](CO)C(=O)N[C@@H](CC(N)=O)C(=O)N1 [Compound 5a, Cyclo-[(2R,3R)-2,3-dihydroxy-4-(octylamino)-4-oxobutanoic Acid-(S)-7-D-Ser-D-Tyr-D-Asn-Gly-Asn-Ser-Asn]] ([dS][dY][dN]GNSN; linker N-C via X11)	5.3 min	>200 µg/mL
CCCCCCCCCCC(=O)N[C@@H](CO)C(=O)N[C@H]1CCCNC(=O)[C@H](CC(N)=O)NC(=O)[C@H](CO)NC(=O)[C@H](CC(N)=O)NC(=O)CNC(=O)[C@@H](CC(N)=O)NC(=O)[C@@H](Cc2ccc(O)cc2)NC(=O)[C@@H](CO)NC1=O [Compound 6a, Cyclo-[Undecanoic Acid-Ser-Orn-D-Ser-D-Tyr-D-Asn-Gly-Asn-Ser-Asn]] (Undecanoyl-S[Orn][dS][dY][dN]GNSN; lactam 2-C)	9.7 min	>200 µg/mL
CCCCCCCCCCCC(=O)N[C@@H](CO)C(=O)N[C@H]1CCCNC(=O)[C@H](CC(N)=O)NC(=O)[C@H](CO)NC(=O)[C@H](CC(N)=O)NC(=O)CNC(=O)[C@@H](CC(N)=O)NC(=O)[C@@H](Cc2ccc(O)cc2)NC(=O)[C@@H](CO)NC1=O [Compound 6b, Cyclo-[Dodecanoic Acid-Ser-Orn-D-Ser-D-Tyr-D-Asn-Gly-Asn-Ser-Asn]] (Lauroyl-S[Orn][dS][dY][dN]GNSN; lactam 2-C)	12.1 min	>200 µg/mL
CCCCCCCCCCC(=O)N[C@H](CO)C(=O)N[C@H]1CCCNC(=O)[C@H](CC(N)=O)NC(=O)[C@H](CO)NC(=O)[C@H](CC(N)=O)NC(=O)CNC(=O)[C@@H](CC(N)=O)NC(=O)[C@@H](Cc2ccc(O)cc2)NC(=O)[C@@H](CO)NC1=O [Compound 6c, Cyclo-[Undecanoic Acid-D-Ser-Orn-D-Ser-D-Tyr-D-Asn-Gly-Asn-Ser-Asn]] (Undecanoyl-[dS][Orn][dS][dY][dN]GNSN; lactam 2-C)	–	>200 µg/mL
CCCCCCCCCCCC(=O)N[C@H](CO)C(=O)N[C@H]1CCCNC(=O)[C@H](CC(N)=O)NC(=O)[C@H](CO)NC(=O)[C@H](CC(N)=O)NC(=O)CNC(=O)[C@@H](CC(N)=O)NC(=O)[C@@H](Cc2ccc(O)cc2)NC(=O)[C@@H](CO)NC1=O [Compound 6d, Cyclo-[Dodecanoic Acid-D-Ser-Orn-D-Ser-D-Tyr-D-Asn-Gly-Asn-Ser-Asn]] (Lauroyl-[dS][Orn][dS][dY][dN]GNSN; lactam 2-C)	11.2 min	>200 µg/mL
CCCCCCCCCCC(=O)N[C@H](C(=O)N[C@H]1CCCNC(=O)[C@H](CC(N)=O)NC(=O)[C@H](CO)NC(=O)[C@H](CC(N)=O)NC(=O)CNC(=O)[C@@H](CC(N)=O)NC(=O)[C@@H](Cc2ccc(O)cc2)NC(=O)[C@@H](CO)NC1=O)[C@@H](C)O [Compound 7, Cyclo-[Undecanoic Acid-Thr-Orn-D-Ser-D-Tyr-D-Asn-Gly-Asn-Ser-Asn]] (Undecanoyl-T[Orn][dS][dY][dN]GNSN; lactam 2-C)	10.6 min	>200 µg/mL
CCCCCCCCNC(=O)[C@H](O)[C@@H](O)C(=O)N[C@H]1CCCNC(=O)[C@H](CC(N)=O)NC(=O)[C@H](CO)NC(=O)[C@H](CC(N)=O)NC(=O)CNC(=O)[C@@H](CC(N)=O)NC(=O)[C@@H](Cc2ccc(O)cc2)NC(=O)[C@@H](CO)NC1=O [Compound 8, Cyclo-[(2R,3R)-2,3-Dihydroxy-4-(octylamino)-4-oxobutanoic Acid-Orn-D-Ser-D-Tyr-D-Asn-Gly-Asn-Ser-Asn]] (X9-[Orn][dS][dY][dN]GNSN; lactam 1-C)	5.8 min	>200 µg/mL
